This note sets out measurements from patent US20210300943A1, “OGA INHIBITOR COMPOUNDS” (Janssen Pharmaceutica NV, priority 2018, published 2021).

In one assay the target is T1, OGA (Homo sapiens, UniProt O60502).
T1 construct: endogenous in cells; host or cells: HEK293 cells inducible for P301L mutant human Tau (2N4R)
T1 sequence (O60502 1-916): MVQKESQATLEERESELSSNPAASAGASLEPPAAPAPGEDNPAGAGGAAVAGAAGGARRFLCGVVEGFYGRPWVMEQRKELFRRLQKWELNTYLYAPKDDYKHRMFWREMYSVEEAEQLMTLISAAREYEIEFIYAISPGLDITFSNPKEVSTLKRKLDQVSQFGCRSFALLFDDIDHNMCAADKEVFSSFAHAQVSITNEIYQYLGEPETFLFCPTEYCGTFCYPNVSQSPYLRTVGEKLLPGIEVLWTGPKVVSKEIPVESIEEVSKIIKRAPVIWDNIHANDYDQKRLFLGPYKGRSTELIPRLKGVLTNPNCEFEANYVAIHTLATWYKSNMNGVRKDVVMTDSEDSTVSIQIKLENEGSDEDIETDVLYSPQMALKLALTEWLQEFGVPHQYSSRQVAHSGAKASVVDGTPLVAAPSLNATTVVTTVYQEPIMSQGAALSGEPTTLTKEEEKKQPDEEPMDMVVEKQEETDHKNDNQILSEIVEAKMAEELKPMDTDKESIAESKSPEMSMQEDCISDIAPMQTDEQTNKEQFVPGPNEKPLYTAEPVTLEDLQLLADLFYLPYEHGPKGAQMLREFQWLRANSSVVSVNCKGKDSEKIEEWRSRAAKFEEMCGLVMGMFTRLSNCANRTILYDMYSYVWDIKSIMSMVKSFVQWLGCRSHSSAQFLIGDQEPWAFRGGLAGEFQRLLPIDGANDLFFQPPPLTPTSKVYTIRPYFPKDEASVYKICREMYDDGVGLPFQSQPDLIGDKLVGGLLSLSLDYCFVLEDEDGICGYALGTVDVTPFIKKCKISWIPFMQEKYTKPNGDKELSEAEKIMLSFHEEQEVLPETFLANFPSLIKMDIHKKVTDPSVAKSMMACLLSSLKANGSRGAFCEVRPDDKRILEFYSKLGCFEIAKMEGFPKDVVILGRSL
The experiment in a line: OGA cellular assay (ICC detection of O-GlcNAcylated proteins in HEK293 cells inducible for P301L mutant human Tau). Type of assay: cell-based. The note with it: HEK293, HEK293 cells inducible for P301L mutant human Tau, maximal effect; Thiamet G 200 uM as maximum. The method, then:
HEK293 cells inducible for P301L mutant human Tau (isoform 2N4R) were established at Janssen. Thiamet-G was used for both plate validation (high control) and as reference compound (reference EC50 assay validation). OGA inhibition is evaluated through the immunocytochemical (ICC) detection of O-GlcNAcylated proteins by the use of a monoclonal antibody (CTD110.6; Cell Signaling, #9875) detecting 0-GlcNAcylated residues as previously described (Dorfmueller et al. 2010 Chemistry & biology, 17:1250). Inhibition of OGA will result in an increase of O-GlcNAcylated protein levels resulting in an increased signal in the experiment. Cell nuclei are stained with Hoechst to give a cell culture quality control and a rough estimate of immediate compounds toxicity, if any. ICC pictures are imaged with a Perkin Elmer Opera Phenix plate microscope and quantified with the provided software Perkin Elmer Harmony 4.1.
Cells were propagated in DMEM high Glucose (Sigma, #D5796) following standard procedures. 2 days before the cell assay cells are split, counted and seeded in Poly-D-Lysine (PDL) coated 96-wells (Greiner, #655946) plate at a cell density of 12,000 cells per cm^2 (4,000 cells per well) in 100 μl of Assay Medium (Low Glucose medium is used to reduce basal levels of GlcNAcylation) (Park et al. 2014 The Journal of biological chemistry 289:13519). At the day of compound test medium from assay plates was removed and replenished with 90 μl of fresh Assay Medium. 10 μl of compounds at a 10 fold final concentration were added to the wells. Plates were centrifuged shortly before incubation in the cell incubator for 6 hours. DMSO concentration was set to 0.2%. Medium is discarded by applying vacuum. For staining of cells medium was removed and cells washed once with 100 μl D-PBS (Sigma, #D8537). From next step onwards unless other stated assay volume was always 50 μl and incubation was performed without agitation and at room temperature. Cells were fixed in 50 μl of a 4% paraformaldehyde (PFA, Alpha aesar, #043368) PBS solution for 15 minutes at room temperature. […] Before analysis samples were washed 2 times manually for 5 minutes in ICC base buffer.
Imaging is performed using Perkin Elmer Phenix Opera using a water 20× objective and recording 9 fields per well. Intensity readout at 488 nm is used as a measure of O-GlcNAcylation level of total proteins in wells. To assess potential toxicity of compounds nuclei were counted using the Hoechst staining. IC50-values are calculated using parametric non-linear regression model fitting. As a maximum inhibition Thiamet G at a 200 uM concentration is present on each plate. In addition, a concentration response of Thiamet G is calculated on each plate.
As a reminder, the Emax is the maximal effect, on the per cent scale that the assay sets. In turn, `Cc1cc(OC[C@H]2CCCN([C@H](C)c3ccc4c(n3)OCCO4)C2)nc(C)n1` (mixture of isomers) [Product 114] returned an Emax of 66%.
The molecule `Cc1cc(NCC2CCCN(C(C)c3ccc4c(c3)OCC4)C2)cc(C)n1` (centres unmarked) [Product 22] displayed an Emax of 82%.
On the same count and under the same terms, the same measure for `Cc1cc(OC[C@H]2CCCN(C(C)c3nc4c(cc3F)CCO4)C2)cc(C)n1` (mixture of isomers) [Product 178]: 104%; for `Cc1cc(OC[C@H]2CCCN([C@H](C)c3nc4c(cc3F)OCCO4)C2)cc(C)n1` [Product 154]: 86%.
In turn, `Cc1cc(C2CCCN(C(C)c3cnc4c(c3)OCCN4)C2)cc(C)n1` (centres unmarked) [Product 137] came in with an Emax of 83%.
On to `Cc1cc(C[C@H]2CCCN(C(C)c3ccc4c(n3)OCC(=O)N4)C2)cc(C)n1` (mixture of isomers) [Product 59], for which the Emax amounted to 23%.
On to `Cc1cc(C[C@H]2CCCN(C(C)c3cnc4c(c3)OCCO4)C2)cc(C)n1` (some centres unmarked) [Product 130], for which the Emax amounted to 83%.
Same read-out and setting: next, `Cc1cc(OC2CCCN(C(C)c3ccc4c(n3)OCCO4)C2)cc(C(F)(F)F)n1` (centres unmarked) [Product 138]: 16%; `Cc1cc(OC[C@H]2CCCN([C@@H](C)c3nc4c(cc3F)OCCO4)C2)cc(C)n1` [Product 153]: 94%; `COc1cc(NC[C@H]2CCCN(C(C)c3ccc4c(n3)OCCO4)C2)cc(C)n1` (single isomer, unassigned) [Product 26]: 85%.
`Cc1cc(C[C@H]2CCCN(C(C)c3cnc4c(c3)OCCN4)C2)cc(C)n1` (mixture of isomers) [Product 50]: the maximum response (Emax) turned out to be 85%.

The assay is the same for the next values; noted with them: HEK293 cells inducible for P301L mutant human Tau, 6 hours incubation; read-out: Cellular hOGA; pEC50 (converted).
With `Cc1cc(OC[C@H]2CCCN([C@H](C)c3ccc4c(n3)OCCO4)C2)nc(C)n1` (mixture of isomers) [Product 114], the EC50 was 158 nM.
In the case of `Cc1cc(NCC2CCCN(C(C)c3ccc4c(c3)OCC4)C2)cc(C)n1` (centres unmarked) [Product 22], the EC50 was 7.94 nM.
Take `Cc1cc(OC[C@H]2CCCN(C(C)c3nc4c(cc3F)CCO4)C2)cc(C)n1` (mixture of isomers) [Product 178]: the EC50 is 2.51 nM.
For `Cc1cc(OC[C@H]2CCCN([C@H](C)c3nc4c(cc3F)OCCO4)C2)cc(C)n1` [Product 154], the EC50 is 126 nM.
As to `Cc1cc(C2CCCN(C(C)c3cnc4c(c3)OCCN4)C2)cc(C)n1` (centres unmarked) [Product 137], the EC50 was 50.1 nM.
With `Cc1cc(C[C@H]2CCCN(C(C)c3ccc4c(n3)OCC(=O)N4)C2)cc(C)n1` (mixture of isomers) [Product 59], the EC50 was > 1000 nM.
For the molecule `Cc1cc(C[C@H]2CCCN(C(C)c3cnc4c(c3)OCCO4)C2)cc(C)n1` (some centres unmarked) [Product 130], the EC50 is 158 nM.
As to `Cc1cc(OC2CCCN(C(C)c3ccc4c(n3)OCCO4)C2)cc(C(F)(F)F)n1` (centres unmarked) [Product 138], the EC50 is > 1000 nM.
Take `Cc1cc(OC[C@H]2CCCN([C@@H](C)c3nc4c(cc3F)OCCO4)C2)cc(C)n1` [Product 153]: the EC50 is 2.51 nM.
Consider `COc1cc(NC[C@H]2CCCN(C(C)c3ccc4c(n3)OCCO4)C2)cc(C)n1` (single isomer, unassigned) [Product 26], for which the EC50 is 5.01 nM.
On to `Cc1cc(C[C@H]2CCCN(C(C)c3cnc4c(c3)OCCN4)C2)cc(C)n1` (mixture of isomers) [Product 50], for which the EC50 was 39.8 nM.

In another assay the target is T2, recombinant human Meningioma Expressed Antigen 5 (MGEA5), also referred to as O-GlcNAcase (OGA) (Homo sapiens, UniProt O60502).
T2 construct: Full length OGA enzyme was purchased at OnGene (cat #TP322411); purchased OnGene (so in the source)
T2 sequence (O60502 1-916): T1 sequence (O60502 1-916)
In words: OGA biochemical assay (inhibition of FM-GlcNAc hydrolysis, fluorescence). Particulars: maximal effect. The method in brief:
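Full-length recombinant OGA (2 nM) pre-incubated with compound 60 min at room temperature, then FM-GlcNAc (100 µM final) added in citrate/phosphate buffer pH 7.2 with 0.005% Tween-20. After 6 h at room temperature, stopped with carbonate pH 11.0; fluorescein read at 485/538 nm; IC50 and Hill coefficient from curve fit.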
On to `COc1cc(NC[C@H]2CCCN(C(C)c3ccc4c(n3)OCCO4)C2)cc(C)n1` (single isomer, unassigned) [Product 26], for which the “Enzymatic Emax (%)” value was determined as 101%.

Still in this assay, the particulars now being: maximal effect, read-out: Enzymatic Emax (%).
For `Cc1cc(OC[C@H]2CCCN([C@H](C)c3ccc4c(n3)OCCO4)C2)nc(C)n1` (mixture of isomers) [Product 114], the Emax is 100%.
For the molecule `Cc1cc(NCC2CCCN(C(C)c3ccc4c(c3)OCC4)C2)cc(C)n1` (centres unmarked) [Product 22], the Emax amounted to 104%.
Take `Cc1cc(OC[C@H]2CCCN(C(C)c3nc4c(cc3F)CCO4)C2)cc(C)n1` (mixture of isomers) [Product 178]: the Emax is 95%.
On to `Cc1cc(OC[C@H]2CCCN([C@H](C)c3nc4c(cc3F)OCCO4)C2)cc(C)n1` [Product 154], for which the Emax worked out at 101%.
As for `Cc1cc(C2CCCN(C(C)c3cnc4c(c3)OCCN4)C2)cc(C)n1` (centres unmarked) [Product 137], the Emax worked out at 101%.
With `Cc1cc(C[C@H]2CCCN(C(C)c3ccc4c(n3)OCC(=O)N4)C2)cc(C)n1` (mixture of isomers) [Product 59], the maximum response (Emax) was determined as 102%.
On the same count and under the same terms, the same measure for `Cc1cc(C[C@H]2CCCN(C(C)c3cnc4c(c3)OCCO4)C2)cc(C)n1` (some centres unmarked) [Product 130]: 101%; for `Cc1cc(OC2CCCN(C(C)c3ccc4c(n3)OCCO4)C2)cc(C(F)(F)F)n1` (centres unmarked) [Product 138]: 101%.
Take `Cc1cc(OC[C@H]2CCCN([C@@H](C)c3nc4c(cc3F)OCCO4)C2)cc(C)n1` [Product 153]: the Emax was determined as 102%.
As for `Cc1cc(C[C@H]2CCCN(C(C)c3cnc4c(c3)OCCN4)C2)cc(C)n1` (mixture of isomers) [Product 50], the Emax came out at 103%.

The assay is the same for the next values; noted with them: read-out: Enzymatic hOGA, pIC50 (converted).
On to `Cc1cc(OC[C@H]2CCCN([C@H](C)c3ccc4c(n3)OCCO4)C2)nc(C)n1` (mixture of isomers) [Product 114], for which the IC50 was 15.8 nM.
For the molecule `Cc1cc(NCC2CCCN(C(C)c3ccc4c(c3)OCC4)C2)cc(C)n1` (centres unmarked) [Product 22], the IC50 is 7.94 nM.
As to `Cc1cc(OC[C@H]2CCCN(C(C)c3nc4c(cc3F)CCO4)C2)cc(C)n1` (mixture of isomers) [Product 178], the IC50 was 2.51 nM.
The same measure, in the same setting: the same measure for `Cc1cc(OC[C@H]2CCCN([C@H](C)c3nc4c(cc3F)OCCO4)C2)cc(C)n1` [Product 154]: 50.1 nM; for `Cc1cc(C2CCCN(C(C)c3cnc4c(c3)OCCN4)C2)cc(C)n1` (centres unmarked) [Product 137]: 20 nM; for `Cc1cc(C[C@H]2CCCN(C(C)c3ccc4c(n3)OCC(=O)N4)C2)cc(C)n1` (mixture of isomers) [Product 59]: 126 nM.
On the same count and under the same terms, the same measure for `Cc1cc(C[C@H]2CCCN(C(C)c3cnc4c(c3)OCCO4)C2)cc(C)n1` (some centres unmarked) [Product 130]: 7.94 nM.
For `Cc1cc(OC2CCCN(C(C)c3ccc4c(n3)OCCO4)C2)cc(C(F)(F)F)n1` (centres unmarked) [Product 138], the IC50 is 126 nM.
For the molecule `Cc1cc(OC[C@H]2CCCN([C@@H](C)c3nc4c(cc3F)OCCO4)C2)cc(C)n1` [Product 153], the IC50 was 1.58 nM.
In the case of `COc1cc(NC[C@H]2CCCN(C(C)c3ccc4c(n3)OCCO4)C2)cc(C)n1` (single isomer, unassigned) [Product 26], the IC50 is 2.51 nM.
Same read-out and setting: next, `Cc1cc(C[C@H]2CCCN(C(C)c3cnc4c(c3)OCCN4)C2)cc(C)n1` (mixture of isomers) [Product 50]: 10 nM.
